The results in this text go back to BindingDB's records for doi:10.1021/jm00037a006 (Abbott Laboratories, 1994).

The structures appear in SMILES notation. Square brackets hold non-standard residues; d marks the D form. Peptide text beside a SMILES is read from it. * marks the point of attachment. Acryloyl(3-(3-pyridyl),E) = O=C(/C=C/c1cccnc1)*; NMeF = CN[C@@H](Cc1ccccc1)C(=O)O; NMeD = CN[C@@H](CC(=O)O)C(=O)O; Boc = CC(C)(C)OC(=O)*

The target of this experiment is Gastrin/cholecystokinin type B receptor (Cavia porcellus). Briefly: In vitro binding for half maximal inhibition of [125I]- cholecystokinin type B receptor in guinea pig cortex.

For the molecule `CN(C(=O)[C@H](CCCCNC(=O)/C=C/c1cccnc1)NC(=O)[C@H](Cc1c[nH]c2ccccc12)NC(=O)OC(C)(C)C)[C@@H](CC(=O)O)C(=O)N(C)[C@@H](Cc1ccccc1)C(N)=O` [(S)-3-{[(S)-2-[2-tert-Butoxycarbonylamino-3-(1H-indol-3-yl)-propionylamino]-6-((E)-3-pyridin-3-yl-acryloylamino)-hexanoyl]-methyl-amino}-N-((S)-1-carbamoyl-2-phenyl-ethyl)-N-methyl-succinamic acid] (Boc-WK(Acryloyl(3-(3-pyridyl),E))[NMeD][NMeF]-NH2), the IC50 (commonly the concentration that gives 50% inhibition) is 22.7 µM.
